In patent publication US9682978B2, “2,6,7 substituted purines as HDM2 inhibitors” (Merck Sharp & Dohme Corp., priority 2013, dated 2017):

Molecular target: T1, HDM2 (Homo sapiens, UniProt Q00987)
T1 construct: Thioredoxin (N); made in house; host or cells: E. coli BL21(DE3)Rosetta (pET32a)
Experiment: HDM2 FRET assay (inhibition of p53 peptide binding to HDM2)
Conditions: for IC50: truncated HDM2 residues 17 to 125, 0.5 nM HDM2, 3 nM FITC labeled 8-mer peptide, two hour incubation; for inhibition at 1 µM: Table 1, printed in the FRET IC50 column, at 1000 nM compound
Text: Methods: An HDM2 FRET assay was developed to assess the compounds' inhibitory activity towards binding of p53 protein. A truncated version of HDM2 with residues 17 to 125 (containing p53 binding surface, Science (1994) 265, 346-355), with N-terminal His and Thioredoxin tag was generated in pET32a expression vector and expressed in E. coli strain BL21(DE3)Rosetta. Protein was purified using Ni-affinity chromatography, followed by size exclusion chromatography using Superdex 75 26/60 column. To assess inhibition of p53 binding to HDM2, a FITC labeled 8-mer peptide (sequence: Ac-Phe-Arg-Dpr-Ac6c-(6-Br)Trp-Glu-Glu-Leu-NH2; Anal Biochem. 2004 Aug. 1; 331(1):138-46) with strong affinity towards p53 binding pocket of HDM2 was used. The HDM2 assay buffer contained 1× Phosphate Buffered Saline (Invitrogen, Cat#14190), 0.01% BSA (Jackson ImmunoResearch, Cat#001-000-162), 0.01% Tween-20. In the 1× assay buffer recombinant HDM2 protein, peptide and Lumi4-Tb Cryptate-conjugate mouse anti-6×HIS antibody (cisbio, Cat#Tb61HISTLB) were added and transferred to ProxiPlate PLUS (PerkinElmer, Cat#6008269), containing compounds so that final DMSO concentration is 0.1%. Final concentrations of reagents in the assay wells are 0.5 nM HDM2, 0.25 nM anti HIS (Tb label) antibody and 3 nM peptide. After two hour incubation at room temperature in a humidified chamber plates were read on EnVision plate reader with the following settings: excitation: UV, […], two emission filters: 520 nm and 495 nm respectively. Ratio of em520/em495 was used to calculate % inhibition and to obtain IC50 with 4-parameter logistic equation.
IC50 DETERMINATIONS: Dose-response curves were plotted from the inhibition data, from 10 point serial dilutions of inhibitory compounds. Concentration of compound was plotted against em520/Cem495 ratio signal. To generate IC50 values, the dose-response curves were fitted to a standard sigmoidal curve and IC50 values were derived by nonlinear regression analysis. IC50 values in the above table are rounded to the nearest integer.

T1 sequence (Q00987 17-125): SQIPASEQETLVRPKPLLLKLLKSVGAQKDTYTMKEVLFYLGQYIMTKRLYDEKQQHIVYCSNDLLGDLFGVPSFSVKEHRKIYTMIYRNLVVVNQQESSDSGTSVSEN

Row | Structure (SMILES) | IC50 (Table 2) [µM] | IC50 (Table 3) [µM] | further results
1 | C[C@H]1CC[C@H](Cn2cnc3nc(-c4noc(=O)[nH]4)nc(-c4cc(Cl)ccc4O)c32)CC1 [Example 2.5, 3-{6-(5-chloro-2-hydroxyphenyl)-7-[(trans-4-methylcyclohexyl)methyl]-7H-purin-2-yl}-1,2,4-oxadiazol-5(4H)-one] | 0.842 | – | –
2 | C[C@H]1CC[C@H](Cn2cnc3nc(-c4noc(=O)[nH]4)nc(-c4cccc(C#N)c4)c32)CC1 [Example 2.9, 3-{7-[(trans-4-methylcyclohexyl)methyl]-2-(5-oxo-4,5-dihydro-1,2,4-oxadiazol-3-yl)-7H-purin-6-yl}benzonitrile] | 0.518 | – | –
3 | C[C@H]1CC[C@H](Cn2cnc3nc(-c4noc(=O)[nH]4)nc(N4CCCC(C(F)(F)F)C4)c32)CC1 (stereo partly drawn) [Example 1.10, 3-{7-[(trans-4-methylcyclohexyl)methyl]-6-[3-(trifluoromethyl)piperidin-1-yl]-7H-purin-2-yl}-1,2,4-oxadiazol-5(4H)-one] | – | – | inhibition at 1 µM: 37%
4 | C[C@H]1CC[C@H](Cn2cnc3nc(-c4noc(=O)[nH]4)nc(-c4cccc(Br)c4)c32)CC1 [Example 2.8, 3-{6-(3-bromophenyl)-7-[(trans-4-methylcyclohexyl)methyl]-7H-purin-2-yl}-1,2,4-oxadiazol-5(4H)-one] | 0.157 | – | –
5 | C[C@@H](Nc1nc(-c2noc(=O)[nH]2)nc2ncn(CC3CCC4(CC3)CC4)c12)C1CCC1 [Example 3.3, 3-[6-{[(1R)-1-cyclobutylethyl]amino}-7-(spiro[2.5]oct-6-ylmethyl)-7H-purin-2-yl]-1,2,4-oxadiazol-5(4H)-one] | – | 1.43 | –
6 | CC1CCCN(c2nc(-c3noc(=O)[nH]3)nc3ncn(C[C@H]4CC[C@H](C)CC4)c23)C1 (stereo partly drawn) [Example 1.11, 3-{7-[(trans-4-methylcyclohexyl)methyl]-6-(3-methylpiperidin-1-yl)-7H-purin-2-yl}-1,2,4-oxadiazol-5(4H)-one] | – | – | inhibition at 1 µM: 43%
7 | C[C@H]1CC[C@H](Cn2cnc3nc(-c4noc(=O)[nH]4)nc(Oc4cccc(Cl)c4)c32)CC1 [Example 1.5, 3-{6-(3-chlorophenoxy)-7-[(trans-4-methylcyclohexyl)methyl]-7H-purin-2-yl}-1,2,4-oxadiazol-5(4H)-one] | – | – | IC50 (Table 1): 0.392 µM
8 | COCCOc1cc(Cl)cc(-c2nc(-c3n[nH]c(=O)o3)nc3ncn(C[C@H]4CC[C@H](C)CC4)c23)c1 [Example 2.23, 5-{6-[3-chloro-5-(2-methoxyethoxy)phenyl]-7-[(trans-4-methylcyclohexyl)methyl]-7H-purin-2-yl}-1,3,4-oxadiazol-2(3H)-one] | 0.132 | – | –
9 | C[C@H]1CC[C@H](Cn2cnc3nc(-c4noc(=O)[nH]4)nc(-c4cc(Cl)cnc4O)c32)CC1 [Example 2.16, 3-{6-(5-chloro-2-hydroxypyridin-3-yl)-7-[(trans-4-methylcyclohexyl)methyl]-7H-purin-2-yl}-1,2,4-oxadiazol-5(4H)-one] | 0.0876 | – | –
10 | O=c1[nH]c(-c2nc(-c3cccc(Cl)c3)c3c(ncn3C[C@H]3CC[C@H](C(F)(F)F)CC3)n2)no1 [Example 3.2, 3-[6-(3-chlorophenyl)-7-{[trans-4-(trifluoromethyl)cyclohexyl]methyl}-7H-purin-2-yl]-1,2,4-oxadiazol-5(4H)-one] | – | 0.437 | –
11 | COc1cccc(Oc2nc(-c3noc(=O)[nH]3)nc3ncn(C[C@H]4CC[C@H](C)CC4)c23)c1 [Example 1.9, 3-{6-(3-methoxyphenoxy)-7-[(trans-4-methylcyclohexyl)methyl]-7H-purin-2-yl}-1,2,4-oxadiazol-5(4H)-one] | – | – | inhibition at 1 µM: 39%
12 | C=C1CCC(Cn2cnc3nc(-c4noc(=O)[nH]4)nc(N[C@H](C)C4CCC4)c32)CC1 [Example 3.7, 3-(6-{[(1R)-1-cyclobutylethyl]amino}-7-[(4-methylidenecyclohexyl)methyl]-7H-purin-2-yl)-1,2,4-oxadiazol-5(4H)-one] | – | 0.543 | –
13 | CC([C@H]1CC[C@H](C)CC1)n1cnc2nc(-c3noc(=O)[nH]3)nc(N[C@H](C)C3CCC3)c21 (stereo partly drawn) [Example 3.18, 3-(6-{[(1R)-1-cyclobutylethyl]amino}-7-[1-(trans-4-methylcyclohexyl)ethyl]-7H-purin-2-yl)-1,2,4-oxadiazol-5(4H)-one] | – | 0.017 | –
14 | C[C@@H](Nc1nc(C(=O)O)nc2ncn(Cc3ccc(C(F)(F)F)cc3)c12)C1CCC1 [Example 1.13, 6-{[(1R)-1-cyclobutylethyl]amino}-7-[4-(trifluoromethyl)benzyl]-7H-purine-2-carboxylic acid] | – | – | IC50 (Table 1): 0.0816 µM
15 | C[C@@H](Nc1nc(C(=O)O)nc2ncn(Cc3cc4ccccc4s3)c12)C1CC1 [Example 1.8, 7-(1-benzothiophen-2-ylmethyl)-6-{[(1R)-1-cyclopropylethyl]amino}-7H-purine-2-carboxylic acid] | – | – | IC50 (Table 1): 2.42 µM
16 | CC1=C(F)CC(Cn2cnc3nc(-c4noc(=O)[nH]4)nc(N[C@H](C)C4CCC4)c32)CC1 (mixture of isomers) [Example 3.6, 3-(6-{[(1R)-1-cyclobutylethyl]amino}-7-[(3-fluoro-4-methylcyclohex-3-en-1-yl)methyl]-7H-purin-2-yl)-1,2,4-oxadiazol-5(4H)-one] | – | 0.149 | –
17 | CCC1CCC(Cn2cnc3nc(C(=O)O)nc(N[C@H](C)C4CCC4)c32)C1 (single isomer, unassigned) [Example 3.12] | – | 0.146 | –
18 | C[C@H]1CC[C@H](Cn2cnc3nc(-c4noc(=O)[nH]4)nc(-c4cccc(Cl)c4)c32)CC1 [Example 2.1, 3-{6-(3-chlorophenyl)-7-[(trans-4-methylcyclohexyl)methyl]-7H-purin-2-yl}-1,2,4-oxadiazol-5(4H)-one] | 0.0534 | – | –
19 | CCC1CCC(Cn2cnc3nc(C(=O)O)nc(N[C@H](C)C4CCC4)c32)C1 (single isomer, unassigned) [Example 3.13] | – | 0.51 | –
20 | C[C@@H](Nc1nc(C(=O)O)nc2ncn(Cc3ccc(C(F)(F)F)cc3)c12)C1CC1 [Example 1.1, 6-{[(1R)-1-cyclopropylethyl]amino}-7-[4-(trifluoromethyl)benzyl]-7H-purine-2-carboxylic acid] | – | – | IC50 (Table 1): 1.14 µM
21 | CS(=O)(=O)c1cc(Cl)cc(-c2nc(-c3noc(=O)[nH]3)nc3ncn(C[C@H]4CC[C@H](C)CC4)c23)c1 [Example 2.17, 3-{6-[3-chloro-5-(methylsulfonyl)phenyl]-7-[(trans-4-methylcyclohexyl)methyl]-7H-purin-2-yl}-1,2,4-oxadiazol-5(4H)-one] | 0.25 | – | –
22 | C[C@H]1CC[C@H](Cn2cnc3nc(-c4noc(=O)[nH]4)nc(-c4cc(Cl)cc(C(N)=O)c4)c32)CC1 [Example 2.13, 3-chloro-5-{7-[(trans-4-methylcyclohexyl)methyl]-2-(5-oxo-4,5-dihydro-1,2,4-oxadiazol-3-yl)-7H-purin-6-yl}benzamide] | 0.0508 | – | –
23 | C[C@H]1CC[C@H](Cn2cnc3nc(-c4noc(=O)[nH]4)nc(-c4ccnc(Cl)c4)c32)CC1 [Example 2.15, 3-{6-(2-chloropyridin-4-yl)-7-[(trans-4-methylcyclohexyl)methyl]-7H-purin-2-yl}-1,2,4-oxadiazol-5(4H)-one] | 0.188 | – | –
24 | COCOc1cc(Cl)cc(-c2nc(-c3noc(=O)[nH]3)nc3ncn(C[C@H]4CC[C@H](C)CC4)c23)c1 [Example 2.14, 3-{6-[3-chloro-5-(methoxymethoxy)phenyl]-7-[(trans-4-methylcyclohexyl)methyl]-7H-purin-2-yl}-1,2,4-oxadiazol-5(4H)-one] | 0.0417 | – | –
25 | CCC1CCC(Cn2cnc3nc(-c4noc(=O)[nH]4)nc(N[C@H](C)C4CCC4)c32)C1 (single isomer, unassigned) [Example 3.14] | – | 0.189 | –
26 | C[C@@H]1CC[C@@H](Cn2cnc3nc(-c4noc(=O)[nH]4)nc(-c4cccc(Cl)c4)c32)CC1(F)F (single isomer, unassigned) [Example 3.15, 3-[6-(3-chlorophenyl)-7-{[(trans)-3,3-difluoro-4-methylcyclohexyl]methyl}-7H-purin-2-yl]-1,2,4-oxadiazol-5(4H)-one] | – | 0.43 | –
27 | C[C@@H](Nc1nc(-c2noc(=O)[nH]2)nc2ncn(Cc3ccc(C(F)(F)F)cc3)c12)C1CCC1 [Example 1.14, 3-(6-{[(1R)-1-cyclobutylethyl]amino}-7-[4-(trifluoromethyl)benzyl]-7H-purin-2-yl)-1,2,4-oxadiazol-5(4H)-one] | – | – | IC50 (Table 1): 0.0216 µM
28 | CC([C@H]1CC[C@H](C)CC1)n1cnc2nc(-c3noc(=O)[nH]3)nc(N[C@H](C)C3CCC3)c21 (single isomer, unassigned) [Example 3.17] | – | 0.421 | –
